Where “and” joins values, the source holds several entries; their conditions need not be identical. Equal entries are not always repeated.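 Exposure lasted 48 hours, with cells grown in 96-well plates and compounds tested at five concentrations. Here, GI50 denotes the concentration required for 50% inhibition of growth. TGI marks complete inhibition of growth.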
Columns and labels:
Test in all cases: NCI anticancer screen, dose series, 48 h
MDA-MB-435 = test system: MDA-MB-435
SK-MEL-2 melanoma = test system: SK-MEL-2 melanoma
A498 renal = test system: A498 renal
MALME-3M melanoma = test system: MALME-3M melanoma
NCI-H522 lung = test system: NCI-H522 lung
HCT-15 colon = test system: HCT-15 colon
SF-268 CNS = test system: SF-268 CNS
SN12C renal = test system: SN12C renal
ACHN renal = test system: ACHN renal
CCRF-CEM leukemia = test system: CCRF-CEM leukemia

SMILES	GI50 (MDA-MB-435)	TGI (MDA-MB-435)	GI50 (SK-MEL-2 melanoma)	TGI (SK-MEL-2 melanoma)	GI50 (A498 renal)	TGI (A498 renal)	GI50 (MALME-3M melanoma)	TGI (MALME-3M melanoma)	GI50 (NCI-H522 lung)	TGI (NCI-H522 lung)	GI50 (HCT-15 colon)	TGI (HCT-15 colon)	GI50 (SF-268 CNS)	TGI (SF-268 CNS)	GI50 (SN12C renal)	TGI (SN12C renal)	GI50 (ACHN renal)	TGI (ACHN renal)	GI50 (CCRF-CEM leukemia)	TGI (CCRF-CEM leukemia)
CC(=O)Nc1ccc(S(=O)(=O)N2C(=O)CCC2C(=O)Nc2ccccc2)cc1 (stereo not given)	0.582 µM	17.3 µM	1.34 µM	9.05 µM	0.303 µM	8.77 µM	3.38 µM	18.8 µM	0.491 µM	6.27 µM	0.293 µM	14.8 µM	3.82 µM	23.3 µM	2.68 µM	22.6 µM	0.241 µM	14.3 µM	0.433 µM	14.2 µM
COc1ncc(-c2ccc3nc(N)n(-c4ccccc4C(F)(F)F)c(=O)c3c2)cc1S(=O)(=O)Nc1ccc(F)cc1F	1.11 µM	4.28 µM	2.28 µM	11.9 µM	0.329 µM	1.96 µM	6.53 µM	34.4 µM	3.04 µM	24.5 µM	0.758 µM	6.96 µM	2.43 µM	> 100 µM	4.52 µM	> 100 µM	5.77 µM	> 100 µM	1.28 µM	32.2 µM
FC(F)(F)c1ccc(-c2cnc(-c3nn[nH]n3)nc2NC2CCCCCC2)cc1	> 10 µM	> 10 µM	> 10 µM	> 10 µM	> 10 µM	> 10 µM	> 10 µM	> 10 µM	> 10 µM	> 10 µM	> 10 µM	> 10 µM	> 10 µM	> 10 µM	> 10 µM	> 10 µM	> 10 µM	> 10 µM	> 10 µM	> 10 µM
N/C(=N\O)c1cn(C2OC(CO)C(O)C2O)c2ncnc(N)c12 (stereo not given)	0.0758 µM	0.263 µM	0.128 µM	0.4 µM	0.14 µM	0.555 µM	0.0578 µM	0.243 µM	0.157 µM	0.401 µM	0.133 µM	> 47.8 µM	0.105 µM	> 21.5 µM	0.152 µM	> 36.1 µM	0.0764 µM	> 35.9 µM	0.303 µM	> 38.6 µM
C=C1C(=O)O[C@H]2[C@H]1CC/C(COC(=O)NCc1ccc(Cn3c(=O)sn(CCCI)c3=O)cc1)=C\CC[C@@]1(C)O[C@@H]21	1.68 µM	3.3 µM	2.42 µM	7.19 µM	4.85 µM	16.8 µM	1.39 µM	3.21 µM	1.07 µM	2.39 µM	1.89 µM	3.68 µM	2.54 µM	7.41 µM	1.57 µM	3.62 µM	1.7 µM	3.19 µM	0.314 µM	2.18 µM
CC1(C)N=C(N)N=C(N)N1c1cccc(CC(=O)Nc2ccccc2)c1	4.38 µM	> 100 µM	> 100 µM	> 100 µM	22.8 µM	> 100 µM	58.6 µM	> 100 µM	47.5 µM	> 100 µM	> 100 µM	> 100 µM	1.35 µM	> 100 µM	4.84 µM	> 100 µM	> 100 µM	> 100 µM	18.2 µM	> 100 µM
C=C(C)[C@@H]1CC[C@]2(C(=O)OC)CC[C@]3(C)[C@H](CC[C@@H]4[C@@]5(C)CC/C(=N\OCCC(=NCCC#N)NOCCC#N)C(C)(C)[C@@H]5CC[C@]43C)[C@@H]12	9.7 µM	> 50 µM	13.8 µM	> 50 µM	21.7 µM	> 50 µM	11.8 µM	> 50 µM	8.34 µM	> 50 µM	5.77 µM	> 50 µM	11.4 µM	> 50 µM	7.28 µM	14.7 µM	10.5 µM	> 50 µM	11.7 µM	> 50 µM
Cc1n[nH]c(C)c1-c1c(C)n[nH]c1C	1.93 µM	4.82 µM	2.32 µM	5.51 µM	1.82 µM	4.12 µM	1.7 µM	4.05 µM	1.66 µM	3.63 µM	1.83 µM	4.53 µM	2.28 µM	6.91 µM	2.21 µM	5.82 µM	1.52 µM	2.88 µM	1.45 µM	> 100 µM
Nc1c2ccccc2nc2ccccc12	2.23 µM and 3.46 µM	6.32 µM and 13.7 µM	1.74 µM and 3.87 µM	3.41 µM and 11.4 µM	1.07 µM and 2.18 µM	2.37 µM and 7.28 µM	1.86 µM and 3.69 µM	3.66 µM and 9.62 µM	1.15 µM and 3.03 µM	2.63 µM and 10.1 µM	1.95 µM and 2.27 µM	11.1 µM and 7.23 µM	1.63 µM and 3.47 µM	4.45 µM and 19.7 µM	1.5 µM and 2.61 µM	12.4 µM and 10.5 µM	0.669 µM and 1.89 µM	8.61 µM and 7.19 µM	1.69 µM and 2.3 µM	7.27 µM and 65.4 µM
C/C=C/C(C/C=C(\C)CO[Si](C)(C)C(C)(C)C)O[Si](C)(C)C(C)(C)C (stereo not given)		> 100 µM		> 100 µM		> 100 µM		> 100 µM		> 100 µM		> 100 µM		> 100 µM		> 100 µM		> 100 µM		> 100 µM
CCc1ccc2cc3c(ccc4ccccc43)c3c2c1CC3	> 100 µM	> 100 µM	> 100 µM	> 100 µM	> 100 µM	> 100 µM	> 100 µM	> 100 µM	> 100 µM	> 100 µM	> 100 µM	> 100 µM	> 100 µM	> 100 µM	> 100 µM	> 100 µM	> 100 µM	> 100 µM	> 100 µM	> 100 µM
CCN(CC)CCN1C(=O)c2cccc3cc(N)cc(c23)C1=O		22.2 µM		37.6 µM		57.5 µM		26.1 µM		21.8 µM		> 100 µM		> 100 µM		27.1 µM		> 100 µM		> 100 µM
COc1cccc(-c2cc(-c3ccc(Nc4nc(Nc5ccc(Cl)cc5)nc(Nc5ccc(Cl)cc5)n4)cc3)nc(N)c2C#N)c1	1.82 µM	4.24 µM	1.74 µM	3.65 µM	4.7 µM	29.4 µM	1.69 µM	3.45 µM	1.75 µM	4.62 µM	2.46 µM	> 24.2 µM	2.94 µM	10.2 µM	4.01 µM	> 100 µM	1.98 µM	4.5 µM	1.91 µM	11.5 µM
CCN(CC)c1ccc(C=C2C(=O)NC(=S)NC2=O)cc1	2.31 µM	7.1 µM	2.73 µM	7.05 µM	3.29 µM	11.3 µM	2.98 µM	7.49 µM	1.77 µM	4.29 µM	3.24 µM	9.22 µM	3.83 µM	13.7 µM	7.24 µM	23.1 µM	5.82 µM	18.5 µM	2.12 µM	6.89 µM
COC1=C(OC)C(=O)c2cc(C)c(=O)c(C)cc2C1=O		3.49 µM		36.8 µM		40.7 µM		30.8 µM		32.2 µM		45.7 µM		37.1 µM		7.08 µM		31.1 µM		7.06 µM
COc1cnc2c(c1)C(=O)c1c-2n(CCCN2CCNCC2)c(=O)c2cc(F)ccc12	0.578 µM	2.01 µM	1.71 µM	3.37 µM	0.352 µM	1.9 µM	1.13 µM	2.56 µM	0.118 µM	1.35 µM	0.126 µM	1.3 µM	0.282 µM	1.86 µM	0.0806 µM	0.89 µM	0.0553 µM	0.554 µM	0.0421 µM	1.06 µM
CCCN1CCCC(c2ccc(Nc3nc(Nc4cc(F)ccc4C(N)=O)c4cc[nH]c4n3)c(OC)c2)C1 (stereo not given)	1.04 µM	5.39 µM	1.42 µM	5.26 µM	0.779 µM	4.34 µM	2.69 µM	6.34 µM	2.85 µM	6.01 µM	0.437 µM	5.47 µM	2.84 µM	6.07 µM	3.19 µM	6.71 µM	2.92 µM	6.23 µM	1.55 µM	18.4 µM
N=C(N)c1ccc(-c2ccc(-c3cccs3)s2)cc1F	1.13 µM	2.37 µM	1.94 µM	3.65 µM	0.156 µM	0.621 µM	2.28 µM	4.48 µM	1.94 µM	3.88 µM	0.629 µM	2.09 µM	1.65 µM	3.37 µM	1.63 µM	3.69 µM	1.45 µM	2.93 µM	1.58 µM	3.46 µM
Cc1cc(C)c(CNC(=O)c2cc(Cl)c3c(c2C)O[C@@](C)(C2CCC(N(C)C)CC2)O3)c(=O)[nH]1 (stereo not given in full)	58 µM	> 100 µM	> 100 µM	> 100 µM	27.8 µM	> 100 µM	45.3 µM	> 100 µM	> 100 µM	> 100 µM	> 100 µM	> 100 µM	60.7 µM	> 100 µM	> 100 µM	> 100 µM	> 100 µM	> 100 µM	49.9 µM	> 100 µM
